Tests used:
[1] = test system: Pseudomonas aeruginosa; assay: Antibacterial activity against Pseudomonas aeruginosa PAO397 [PAO1 d(mexAB-oprM) d(mexCD-oprJ) d(mexEF-oprN) d(mexJKL) d(mexXY) d(opmH)] (CO-ADD:GN_211); MIC in CAMBH media using NBS plates, by OD(600); type: functional; conditions: ASSAY_TEST Inhibition of Bacterial Growth, detection method Absorption (OD600), MEDIA CAMHB, plate type 384well, CORNING #3640, time 18 hr
[2] = test system: HEK293; assay: cells; type: functional, Homo sapiens, ATCC CRL1573; conditions: Homo sapiens, ATCC CRL1573, HEK293; ASSAY_TEST Inhibition of Cell Viability; detection method Resazurin; Fluorescence (ex560/em590); MEDIA DMEM with 10% FBS; plate type 384well; TC; CORNING #3712; time 18 hr; read-out: CC50
[3] = test system: Acinetobacter baumannii; assay: microbe, parasite or virus in culture; conditions: ATCC 19606, 18 h, ASSAY_TEST Inhibition of Bacterial Growth, detection method Absorption (OD600), MEDIA CAMHB, plate type 384well, NBS, CORNING #3640
Description: Antibacterial activity against Acinetobacter baumannii ATCC 19606 (CO-ADD:GN_034); MIC in CAMBH media using NBS plates, by OD600

[4] = test system: Escherichia coli; assay: microbe, parasite or virus in culture; conditions: ATCC 25922, 18 h, ASSAY_TEST Inhibition of Bacterial Growth, detection method Absorption (OD600), MEDIA CAMHB, plate type 384well, NBS, CORNING #3640
Description: Antibacterial activity against Escherichia coli ATCC 25922 (CO-ADD:GN_001); MIC in CAMBH media using NBS plates, by OD(600)

[5] = test system: Klebsiella pneumoniae; assay: microbe, parasite or virus in culture; conditions: ATCC 700603, 18 h, ASSAY_TEST Inhibition of Bacterial Growth, detection method Absorption (OD600), MEDIA CAMHB, plate type 384well, NBS, CORNING #3640
Description: Antibacterial activity against Klebsiella pneumoniae MDR ATCC 70063 (CO-ADD:GN_003); MIC in CAMBH media using NBS plates, by OD(600)

[6] = test system: Candida albicans; assay: microbe, parasite or virus in culture; conditions: ATCC 90028, ASSAY_TEST Inhibition of Fungal Growth, detection method Absorption (OD530), plate type 384well, NBS, CORNING #3640
Description: Antifungal activity against Candida albicans ATCC 90028 (CO-ADD:FG_001); MIC in YNB media using NBS plates, by OD630

[7] = test system: Pseudomonas aeruginosa; assay: microbe, parasite or virus in culture; conditions: ATCC 27853, 18 h, ASSAY_TEST Inhibition of Bacterial Growth, detection method Absorption (OD600), MEDIA CAMHB, plate type 384well, NBS, CORNING #3640
Description: Antibacterial activity against Pseudomonas aeruginosa ATCC 27853 (CO-ADD:GN_042); MIC in CAMBH media using NBS plates, by OD(600)

[8] = test system: Staphylococcus aureus; assay: microbe, parasite or virus in culture; conditions: ATCC 43300, 18 h, ASSAY_TEST Inhibition of Bacterial Growth, detection method Absorption (OD600), MEDIA CAMHB, plate type 384well, NBS, CORNING #3640
Description: Antibacterial activity against Staphylococcus aureus MRSA ATCC 43300 (CO-ADD:GP_020); MIC in CAMBH media, using NBS plates, by OD(600)

[9] = test system: Cryptococcus neoformans
Description: Antifungal activity against Cryptococcus neoformans H99 ATCC 208821 (CO-ADD:FG_002); MIC in YNB media using NBS plates, by Resazurin OD(600-570)

MIC [1] [µM] | MIC [3] [µM] | MIC [4] [µM] | MIC [5] [µM] | MIC [6] [µM] | MIC [7] [µM] | MIC [8] [µM] | MIC [9] [µM] | SMILES | CC50 [2] [µM]
> 20 | > 20 | > 20 | > 20 | > 20 | > 20 | > 20 | > 20 | CCCCN1C[C@H](O)[C@@H](O)[C@H](O)[C@H]1CO | > 20
> 20 | > 20 | > 20 | > 20 | > 20 | > 20 | > 20 | > 20 | O=C(O)/C=C/C=C/c1cccc(Oc2cc(Cl)cc(Cl)c2)c1 | > 20
> 20 | > 20 | > 20 | > 20 | > 20 | > 20 | > 20 | > 20 | CC(C)(C)NC(=O)[C@@H]1C[C@@H]2CCCC[C@@H]2CN1C[C@@H](O)[C@H](Cc1ccccc1)NC(=O)[C@H](CC(N)=O)NC(=O)c1ccc2ccccc2n1 | > 20
> 20 | > 20 | > 20 | > 20 | > 20 | > 20 | > 20 | > 20 | COc1ccc(CNC(=O)C2CCN([C@H](C)c3cccc4ccccc34)CC2)cc1 | > 20
> 20 | > 20 | > 20 | > 20 | > 20 | > 20 | > 20 | > 20 | Cc1nc2ccc(Cl)cc2c(-c2ccccc2)c1CC(=O)O | > 20
> 20 | > 20 | > 20 | > 20 | > 20 | > 20 | > 20 | > 20 | COc1ccc(-n2cnc3cc(NCc4ccco4)ccc32)cc1 | > 20
> 20 | > 20 | > 20 | > 20 | > 20 | > 20 | > 20 | > 20 | Oc1ccc(NCc2ccccc2OCc2ccccc2)cc1 | > 20
> 20 | > 20 | > 20 | > 20 | > 20 | > 20 | > 20 | > 20 | O=C(Nc1ccc(N2CCN(C(=O)c3ccccc3)CC2)cc1)c1ccc2c(c1)OCO2 | > 20
> 20 | > 20 | > 20 | > 20 | > 20 | > 20 | > 20 | > 20 | NC(=O)c1c(N)sc2c1CCCCC2 | > 20
> 20 | > 20 | > 20 | > 20 | > 20 | > 20 | > 20 | > 20 | COCCn1cnc2c(O)nc(Nc3ccccc3)nc21 | > 20
> 20 | > 20 | > 20 | > 20 | > 20 | > 20 | > 20 | > 20 | COc1ccc(NS(=O)(=O)c2ccc(Cl)s2)cn1 | > 20
> 20 | > 20 | > 20 | > 20 | > 20 | > 20 | > 20 | > 20 | Cc1ccc(C)c(OCCCCCCN2C[C@H](O)[C@@H](O)[C@H](O)[C@H]2CO)c1 | > 20
> 20 | > 20 | > 20 | > 20 | > 20 | > 20 | > 20 | > 20 | Cc1ccc(N2CCC(CCOc3ccc(S(C)(=O)=O)cc3)CC2)nn1 | > 20
> 20 | > 20 | > 20 | > 20 | > 20 | > 20 | 20 | > 20 | CC[N+]1(C/C2=C/CCCCCC2)CCC(NC(=O)C2c3cc(Cl)ccc3Oc3ccc(Cl)cc32)CC1 (stereo not given) | > 20
> 20 | > 20 | > 20 | > 20 | > 20 | > 20 | > 20 | > 20 | CCc1cc(CCCOc2c(C)cc(-c3noc(C(F)(F)F)n3)cc2C)on1 | > 20
> 20 | > 20 | > 20 | > 20 | > 20 | > 20 | > 20 | > 20 | CCC(CC)[C@H](NC(C)=O)[C@@H]1[C@H](O)[C@@H](C(=O)O)C[C@H]1NC(=N)N | > 20
> 20 | > 20 | > 20 | > 20 | > 20 | > 20 | > 20 | > 20 | COc1ccc2c(c1OC)C(=O)OC2C1c2c(cc3c(c2OC)OCO3)CCN1C (stereo not given) | > 20
> 20 | > 20 | > 20 | > 20 | > 20 | > 20 | > 20 | > 20 | CCCCCCCCCN1C[C@@H](O)[C@H](O)[C@@H](O)[C@@H]1CO | > 20
> 20 | > 20 | > 20 | > 20 | > 20 | > 20 | > 20 | > 20 | O=C(NCCN1CCCCC1)c1cccc(C(F)(F)F)c1 | > 20
> 20 | > 20 | > 20 | > 20 | > 20 | > 20 | > 20 | > 20 | Cc1c(F)cccc1NC(=O)Nc1ccc(Cl)c(S(=O)(=O)[C@H]2CCCNC2)c1O | 12
> 20 | > 20 | > 20 | > 20 | > 20 | > 20 | > 20 | > 20 | Nc1ccc2oc(=O)ccc2c1I | > 20
> 20 | > 20 | > 20 | > 20 | > 20 | > 20 | > 20 | > 20 | COc1ccc2sc3c(c2c1)NC(C)CNC3=O (stereo not given) | 8.52
> 20 | > 20 | > 20 | > 20 | > 20 | > 20 | > 20 | > 20 | C/C(=N\NC(=O)C1CC1c1ccccc1)c1ccc(NC(=O)c2ccco2)cc1 (stereo not given) | > 20

SMILES | MIC [1] [µM] | MIC [3] [µM] | MIC [4] [µM] | MIC [5] [µM] | MIC [6] [µM] | MIC [7] [µM] | MIC [8] [µM] | MIC [9] [µM] | CC50 [2] [µM]
CCN1CCN(Cc2nc3ccc([N+](=O)[O-])cc3c(=O)n2-c2ccccc2F)CC1 | > 20 | > 20 | > 20 | > 20 | > 20 | > 20 | > 20 | > 20 | > 20
CCC[C@H](NC(=O)[C@@H]1[C@H]2CCC[C@H]2CN1C(=O)[C@@H](NC(=O)[C@@H](NC(=O)c1cnccn1)C1CCCCC1)C(C)(C)C)C(=O)C(=O)NC1CC1 | > 20 | > 20 | > 20 | > 20 | > 20 | > 20 | > 20 | > 20 | > 20

Source: ChEMBL document CHEMBL4513161, “CO-ADD screening of MMV (CH) - Pandemic Response Box” (2021)
